From patent US12158464B2, “Methods for modeling disease tissue using three-dimensional tissue systems” (priority 2013, dated 2024)
“Also recorded” adds a separate entry of the source.

Experiments:
[1] = system: hESC-CM biowires (Hes2); experiment: Chronic drug exposure: ELISA of soluble BNP in conditioned media; assay type: cell-based, human
Description: (§1) After preculture for 7 days, biowires were randomly transferred to 6-well plates and cultured in StemPro-34 media in the absence or presence of Isoproterenol (100 nM), Angiotensin II (200 nM [17]) or Endothelin-1 (150 nM)(Sigma) for 7 days. This protocol was chosen to replicate the chronic treatment of mice as described. […] Isolated single cells were seeded on Matrigel-coated glass cover slips before cell area and calcium transient measurements were performed. ELISA. Quantification of soluble BNP from the conditioned media was performed using commercially available ELISA kits.

[2] = system: hESC-derived CMs 3D tissues; experiment: Chronic drug exposure: cell viability in 3D tissues by live/dead staining; assay type: cell-based, human; conditions: vs non-treated controls
[3] = system: hESC-derived CMs 3D tissues; assay type: cell-based, human
Description: Alternatively, to measure the force generated by the 3D engineered cardiac tissues, a bioreactor consisting of a PDMS tissue chamber capable of housing 8 micotissues was employed. […] Briefly, each well of the PDMS chamber had two posts which served as anchoring points for each cardiac tissue during gel compaction. Furthermore, by tracking a post's deflection, the force of contraction a cardiac tissue generated was determined. Cardiac tissues underwent 7 days of pre-culture followed by 7 days of treatment with endothelin-1, angiotensin II or isoproterenol. After the treatment, the contractile force of each cardiac tissue was determined by video recording, one at a time, the top surface of a post for each cardiac tissue while being paced at 0.5 or 1 Hz using CellSens software (Olympus). Each video was then exported as a series of Tiff images and opened in ImageJ. […] Using the method of superposition for a cantilever beam-partial uniform deflection, a point force was calculated and then normalized to the tissues cross sectional area (assumed circular) to determine the cardiac force per area.

[4] = system: human cardiac tissue strands (hESC, Hes2 derived cardiomyocytes); experiment: Biorod drug testing: tissue beating pattern and contractile force by polymer wire deflection; assay type: cell-based
Description: Cardiomyocytes were derived from human embryonic stem cell lines (hESC, Hes2). Embryoid bodies (EBs) were differentiated to the cardiovascular lineage and disassociated as previously described in Device 1 Methods. Before cell seeding, micro-well surface was rinsed with 5% (w/v) Pluronic Acid (Sigma P2443) and then air dried in the bio-safety cabinet. hESC derived cardiomyocytes were suspended at 200 million/ml (unless specified otherwise) in Collagen Type I based gel (3.0 mg/ml of rat tail collagen type I (BD Biosciences) neutralized by 1N NaOH and 10×M199 media as described by the manufacturer) with the supplements of […], 1% (v/v) HEPES, 10% (v/v) Matrigel (BD Biosciences), and […]. Suspended cardiomyocytes were then seeded into the cell culture channel (2.5 μl per well). After 30 min incubation at 37° C. to induce the gelation, appropriate media were added. After seeding, cells were kept in culture for 7 days to allow collagen matrix remodeling and assembly around the wires. Cardiac tissue strands were kept in culture for up to 21 days with media change every 2-3 days. Preferably, the tissue strands should be kept in culture for at least 2 weeks to allow for maturation; however there is no limitation on the maximum culture duration. Cardiac tissue strands were seeded to observe the stability and reproducibility of tissue in long term culture. After seeding, brightfield images (see FIG. 39A for an example) of the tissue strands were taken every day (n=3 per group) using optical microscope (Olympus CKX41) and the diameters of the tissue strands at four distinct locations were analyzed with imageJ (see FIG. 39B for an example). Tissue strand lengths were also analyzed with same method.
Tissue contractile behavior tracing and measurement was carried out. POMac is auto-fluorescent at a wide range of wavelenths; therefore the wires were imaged with a fluorescence microscope under DAPI channel (e.g. 461 nm wavelength) to trace the bending movements of the wires. The POMac is auto-fluorescent at a wide range of wavelengths, including under FITC and Tritc channels. Images were taken at 25 frames per second (fps) (see FIG. 39C). Image sequences were analyzed with ImageJ software using tracking plugin. To calculate the forces originated from cardiac tissues, beam deflection formula with uniformly distributed load in the middle section was used here. […] The engineered cardiac tissues were paced at 2 Hz frequency. From this image sequence, contraction and relaxation time of beating can be estimated. […] Tissue stretching wires can be considered uniformly distributed Load, Wo (Load per force bearing length), which can be calculated with displacement of center point of wires in image sequence, and F can be calculated as well. […] Briefly, entire beam length was L. Section of wire with tissue wrapping around it was experiencing load. Here, the load was assumed to be evenly distributed throughout this section, and Wo was load per length. […] The distance between side of the tissue and a well wall is a, which was assumed equal for both sides. The deflection at center point was y.
Drug testing was carried out.

[5] = system: hESC-CM biowires (Hes2); experiment: Chronic drug exposure of biowires: quantitative RT-PCR of fetal gene program; assay type: cell-based, human; conditions: 7 days treatment: ISO 100 nM, Et-1 150 nM, AngII 200 nM, vs untreated control
Description: as §1, with “performed.” for “performed. ELISA. Quantification of soluble BNP from the conditioned media was performed using commercially available ELISA kits.”
Quantitative RT-PCR. RT-PCR was performed as previously described. Total RNA was prepared with the High Pure RNA Isolation Kit (Roche) and treated with RNase-free DNase (Roche). RNA was reverse transcribed into cDNA using random hexamers and Oligo (dT) with SuperScript VILO (Invitrogen). RT-qPCR was performed on a LightCycler 480 (Roche) using LightCycler 480 SYBR Green I Master (Roche). Expression levels were normalized to the housekeeping genes TATA box binding protein (TBP) or Glyceraldehyde 3-phosphate dehydrogenase (GAPDH).

[6] = system: hESC-CM biowires (Hes2); experiment: Chronic drug exposure: conduction velocity by optical mapping upon point stimulation; assay type: cell-based, human; conditions: point stimulation at the end of cultivation, vs non-treated controls
Description: Optical Mapping. […] Imaging was performed at 200 frames/s. […] Data analysis was performed using BrainVision software (Scimedia).

[7] = system: Hes2 hESC derived cardiomyocytes; assay type: cell-based, human; conditions: single cells dissociated at end of 7 days treatment, cardiac troponin T staining
Description: as §1, with “performed.” for “performed. ELISA. Quantification of soluble BNP from the conditioned media was performed using commercially available ELISA kits.”

[8] = system: hESC-CM biowires (Hes2); assay type: cell-based, human
Description: After preculture for 7 days, biowires were randomly transferred to 6-well plates and cultured in StemPro-34 media in the absence or presence of Isoproterenol (100 nM), Angiotensin II (200 nM [17]) or Endothelin-1 (150 nM)(Sigma) for 7 days. This protocol was chosen to replicate the chronic treatment of mice as described. […] Isolated single cells were seeded on Matrigel-coated glass cover slips before cell area and calcium transient measurements were performed. Immunostaining and Fluorescence Microscopy. Immunostaining was performed using the following antibodies: mouse anti-cTNT (1:100, Thermo Scientific; MS-295-P1), mouse anti-α-actinin (1:200, Abcam, ab9465), anti-mouse-Alexa Fluor 488 (1:400, Invitrogen, A21202), anti-rabbit-TRITC (1:400, Invitrogen, 81-6114). DAPI was used to counterstain nuclei. Phalloidin Alexa Fluor 660 (1:1000, Invitrogen, A22285) was used to detect actin fibers. The stained cells were visualized using a fluorescence microscope (Leica CTR6000) and images captured using the Leica Application Suite software. For confocal microscopy cells were visualized using a fluorescence confocal microscope (Zeiss LSM-510). Transmission Electron Microscopy (TEM). Tissue was fixed with 4% Paraformaldehyde, 1% Glutaraldehyde in 0.1 M PBS for at least 1 hr and washed 3 times with PBS pH 7.2. Post-fixation was done with 1% Osmium Tetraoxide in 0.1 M PBS, pH 7.2 for 1 hr and dehydrated using ethanol series from 25 to 100%. Tissue was infiltrated using Epon resin and polymerized in plastic dishes at 40° C. for 48 hr. Tissue was stained with Uranyl Acetate and Lead Citrate after sectioning. Imaging was performed at Hitachi H-7000 transmission electron microscope.

[9] = system: hESC-derived cardiomyocyte tissue strands; experiment: NO treatment of perfusable human cardiac tissue strands, beating activity by image analysis; assay type: cell-based; conditions: 24 hr NO treatment by perfusion of 200 mM SNP
Description: (§2) NO treatment of human cardiac tissue strands was carried out. On day 7, the NO treatment of human cardiac tissue strand was initiated by perfusing the 200 mM SNP solution and the peristaltic pump was stopped once the SNP solution was perfused through the tubing. The beating activities of the human cardiac tissue strands were recorded at 16.67 frames/second before treatment and 24 hr post-treatment by Olympus IX81 while the tissue strands were kept at 37° C. The beating activities of the human cardiac tissue strands were quantified by the image analysis method described by Sage et al^28. In brief, the movements of one spot at the same location on the human cardiac tissue strand before and after the NO treatment were characterized.

[10] = system: hESC-derived cardiomyocyte tissue strands; experiment: α-actinin immunostaining and confocal microscopy of NO-treated tissue strands; assay type: cell-based, human; conditions: NO treatment by perfusion, vs control tissue strands
Description: Tissue strands were fixed with 4% parafornaldehyde, permeablized by 0.25% Triton X-100, and blocked by 10% bovine serum albumin (BSA). Immunostaining was performed using the following antibodies: mouse anti-cardiac Troponin T (cTnT) (Abcam; 1:100), mouse anti-α-actinin (Abcam; 1:200) and anti-rabbit-TRITC (Invitrogen; 1:200), anti-mouse-TRITC (Jackson Immuno Research; 1:200). Nuclei were counterstained with 4′,6-diamidino-2-phenylindole (DAPI) (Biotium; 1:100). Phalloidin-Alexa 660 (Introgen; 1:600) was used to stain F-actin fibers. For confocal microscopy, the stained cardiac tissue strands were visualized under an inverted confocal microscope (Olympus IX81) or an upright confocal microscope (Zeiss LSM 510).
as §2, with “In brief, the movements of one spot at the same location on the human cardiac tissue strand before and after the NO treatment were characterized.” left out

Compound	BNP in the conditioned media ([1]; chronic treatment)	increase in the secretion of BNP ([1]; day 2 post-treatment, media conditioned for 48 h) [fold]	increase of BNP in the media ([1]; day 7, media conditioned for 24 h) [%]	cell viability (live/dead staining) [2]	force of contraction [3]	tissue contractile forces normalized to forces before drug addition ([4]; 100 nM)	tissue contractile forces normalized to forces before drug addition ([4]; 1 μM)	tissue contractile forces normalized to forces before drug addition ([4]; 10 μM)	response of human cardiac tissues to well-known drugs ([4]; summary statement)	ANF and BNP gene expression (fetal gene program) [5]	ANF and BNP gene expression (fetal gene program) ([5]; listed as Isoproterenol)	conduction velocity [6]	increase in cell size [7] [%]	contractile apparatus (transmission electron microscopy) [8]	spontaneous beating of human cardiac tissue strands ([9]; vs basal level)	beating frequency after NO treatment normalized to the basal level ([9]; n=3) [%]	α-actinin structure (cytoskeleton) of cardiomyocytes [10]
CC(C)NCC(O)c1ccc(O)c(O)c1 (centres unmarked) [ISO, Isoproterenol]	BNP can also be found in the conditioned media	2.5	70	no differences	significantly reduced force of contraction	positive inotropic action	positive inotropic action	slight negative inotropic effect	responded appropriately	significantly induced	induction of brain natriuretic peptide (BNP) and atrial natriuretic factor (ANF) gene expression	the same	35	significant absence of distinct Z-disks and the lack of a defined sarcomere structure	–	–	–
[N]=O [NO, nitric oxide]	–	–	–	–	–	–	–	–	–	–	–	–	–	–	significantly slowed down the beating	74±3	disrupted α-actinin structure; also recorded: overall punctate pattern
